Experimental data from ChEMBL document CHEMBL1201862, “PubChem BioAssay data set” (2004).
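Briefly, cells in 96-well plates were exposed to five compound concentrations for 48 h, and endpoints were estimated by linear interpolation. GI50: concentration for 50% inhibition of growth.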 The source made the active and inactive calls. Cut-off read from the data, not from the text of the source: active = GI50 up to about 1.1 µM and inactive = higher.

Legend:
Experiment in all cases: DTP human tumour cell line panel, 48 h
A549 = tested on: A549
ACHN = tested on: ACHN
BT-549 = tested on: BT-549
CAKI-1 = tested on: CAKI-1
EKVX = tested on: EKVX
HT-29 = tested on: HT-29
LOX IMVI = tested on: LOX IMVI
M14 = tested on: M14
Malme-3M = tested on: Malme-3M
NCI-H23 = tested on: NCI-H23
OVCAR-8 = tested on: OVCAR-8
RPMI-8226 = tested on: RPMI-8226
SF-268 = tested on: SF-268
SK-MEL-2 = tested on: SK-MEL-2
SK-MEL-5 = tested on: SK-MEL-5
UACC-62 = tested on: UACC-62
CCRF-CEM = tested on: CCRF-CEM
HL-60 = tested on: HL-60
SN12C = tested on: SN12C

Measured: GI50

CC(C)OC(=O)/C=C/C(=O)O/C=C/[N+](=O)[O-]
inactive: A549 26.9 µM | ACHN > 100 µM | BT-549 41.8 µM | CAKI-1 34 µM | EKVX 18.2 µM | HT-29 24.5 µM | LOX IMVI 17.5 µM | M14 30 µM | Malme-3M 29.6 µM | NCI-H23 26.7 µM | OVCAR-8 15.7 µM | RPMI-8226 15.5 µM | SF-268 24.5 µM | SK-MEL-2 20.2 µM | SK-MEL-5 31.6 µM | UACC-62 21.3 µM

CS(=O)(=O)CSCSSCS(C)(=O)=O
inactive: A549 > 100 µM | ACHN 40 µM | CAKI-1 25.4 µM | CCRF-CEM 22.2 µM | EKVX > 100 µM | HL-60 21.1 µM | HT-29 > 59.7 µM | LOX IMVI 13.6 µM | M14 19.2 µM | Malme-3M 38.7 µM | NCI-H23 35.5 µM | OVCAR-8 30.2 µM | RPMI-8226 20.4 µM | SF-268 26.2 µM | SK-MEL-2 21.2 µM | SK-MEL-5 40.8 µM | SN12C 29.2 µM | UACC-62 20.7 µM

Oc1ccc(O)c(-n2cccn2)c1
inactive: A549 > 100 µM | ACHN > 100 µM | CAKI-1 19.1 µM | CCRF-CEM 20.6 µM | EKVX > 100 µM | HL-60 18.7 µM | HT-29 65.9 µM | LOX IMVI 52.7 µM | M14 > 100 µM | Malme-3M > 100 µM | NCI-H23 > 100 µM | OVCAR-8 40.7 µM | RPMI-8226 25.6 µM | SF-268 85.9 µM | SK-MEL-2 37 µM | SK-MEL-5 > 100 µM | SN12C 94.4 µM | UACC-62 50.4 µM

Cc1ccccc1NC(=O)C(=O)C(c1cnc2ccc([N+](=O)[O-])cc2n1)[N+](=O)[O-] (centres undefined)
inactive: A549 > 100 µM | ACHN > 100 µM | CAKI-1 > 100 µM | CCRF-CEM 25.5 µM | EKVX > 100 µM | HL-60 24.9 µM | HT-29 > 100 µM | LOX IMVI > 100 µM | M14 > 100 µM | Malme-3M > 100 µM | NCI-H23 > 100 µM | OVCAR-8 > 100 µM | RPMI-8226 31.7 µM | SF-268 > 100 µM | SK-MEL-2 > 100 µM | SK-MEL-5 87.3 µM | SN12C > 100 µM | UACC-62 51.5 µM

CC(C)[Si](OC1=C(C(=O)N(C)c2ccccc2Cl)CCC1)(C(C)C)C(C)C
inactive: A549 15 µM | ACHN 19.9 µM | BT-549 15.8 µM | CAKI-1 18.7 µM | EKVX 16.9 µM | HT-29 15.3 µM | LOX IMVI 19.2 µM | M14 19 µM | Malme-3M 19.1 µM | NCI-H23 15.7 µM | OVCAR-8 17 µM | RPMI-8226 19.2 µM | SF-268 18.5 µM | SK-MEL-5 24.8 µM | SN12C 16.7 µM

CCc1cc(Cc2cc(CC)c(NC(=O)C3=CC(=O)CC(c4ccc(OC)cc4)O3)c(CC)c2Cl)c(Cl)c(CC)c1NC(=O)C1=CC(=O)CC(c2ccc(OC)cc2)O1 (centres undefined)
inactive: A549 23.9 µM | ACHN 17.9 µM | CAKI-1 27.7 µM | CCRF-CEM 28.1 µM | EKVX 30.5 µM | HL-60 23.2 µM | HT-29 20.2 µM | LOX IMVI 18.1 µM | M14 17 µM | Malme-3M 19.1 µM | NCI-H23 17.1 µM | OVCAR-8 26.5 µM | RPMI-8226 15.5 µM | SF-268 25.9 µM | SK-MEL-2 17.3 µM | SK-MEL-5 20.3 µM | SN12C 22 µM | UACC-62 23.8 µM

O=C(c1ccccc1)C(c1ccccc1)C1(O)C(=O)Nc2ccccc21 (centres undefined)
inactive: A549 > 100 µM | ACHN > 100 µM | CAKI-1 > 100 µM | CCRF-CEM > 100 µM | EKVX > 100 µM | HL-60 > 100 µM | HT-29 > 100 µM | LOX IMVI > 100 µM | M14 > 100 µM | Malme-3M > 100 µM | NCI-H23 > 100 µM | OVCAR-8 > 100 µM | RPMI-8226 > 100 µM | SF-268 > 100 µM | SK-MEL-2 > 100 µM | SK-MEL-5 > 100 µM | SN12C > 100 µM | UACC-62 > 100 µM

CC(=O)O[C@H]1CCN2C(=O)C=CC(OCc3ccccc3)C12 (some centres undefined)
inactive: A549 > 100 µM | ACHN > 100 µM | CAKI-1 > 100 µM | CCRF-CEM > 100 µM | EKVX > 100 µM | HL-60 > 100 µM | HT-29 > 100 µM | LOX IMVI > 100 µM | M14 > 100 µM | Malme-3M > 100 µM | NCI-H23 > 100 µM | OVCAR-8 > 100 µM | RPMI-8226 > 100 µM | SF-268 > 100 µM | SK-MEL-2 > 100 µM | SK-MEL-5 > 100 µM | SN12C > 100 µM | UACC-62 > 100 µM
